This note sets out measurements from ChEMBL document CHEMBL1156584, “Metal-free artificial nucleases based on simple oxime and hydroxylamine scaffolds” (Bioorg Med Chem Lett, 2008).

Assay [1] relates to Escherichia coli. In words: Ratio of Kcat to Km for induction of Escherichia coli DH5alpha pBSK-2 DNA cleavage in HEPES buffer at pH 8.0 after 16 hrs by agarose gel electrophoresis.
The test system of assay [2] is Escherichia coli. In words: Inhibition of Escherichia coli DH5alpha pBSK-2 DNA cleavage in HEPES buffer at pH 8.0 after 8 hrs by agarose gel electrophoresis in presence of DMSO. Set-up: concentration or dose not given beside the values.
In assay [3] the test system is Escherichia coli. As to the kind of experiment: Induction of Escherichia coli DH5alpha pBSK-2 DNA cleavage in HEPES buffer at pH 8.0 after 16 hrs by agarose gel electrophoresis.
Assay [4] has as its system Escherichia coli. In words: Inhibition of Escherichia coli DH5alpha pBSK-2 DNA cleavage in HEPES buffer at pH 8.0 after 8 hrs by agarose gel electrophoresis in presence of distamycin. Set-up: concentration or dose not given beside the values.
Assay [5] deals with Escherichia coli. In words: Induction of Escherichia coli DH5alpha pBSK-2 DNA cleavage in CHES buffer at pH 9.0 after 16 hrs by agarose gel electrophoresis.
Assay [6] deals with Escherichia coli. In words: Inhibition of Escherichia coli DH5alpha pBSK-2 DNA cleavage in CHES buffer at pH 9.0 after 8 hrs by agarose gel electrophoresis in presence of glycerol. Set-up: scale not given: the % may be the effect or the level left.
Assay [7] has as its system Escherichia coli. In words: Ratio of Kcat to Km for induction of Escherichia coli DH5alpha pBSK-2 DNA cleavage in CHES buffer at pH 9.0 after 16 hrs by agarose gel electrophoresis.
Assay [8] relates to Escherichia coli. In words: Ratio of Kcat to Km for induction of Escherichia coli DH5alpha pBSK-2 DNA cleavage in PIPES buffer at pH 7.0 after 16 hrs by agarose gel electrophoresis.
Assay [9] relates to Escherichia coli. As to the kind of experiment: Induction of Escherichia coli DH5alpha pBSK-2 DNA cleavage in PIPES buffer at pH 7.0 after 16 hrs by agarose gel electrophoresis.

Take `ON(Cc1ccccc1)Cc1ccccc1`: in the assay on Escherichia coli [1], the kcat/Km turned out to be 0.398 M⁻¹ s⁻¹. Also, the Activity in the assay on Escherichia coli [2] is 14%. For the same compound, in the assay on Escherichia coli [3], the Michaelis constant (Km) stood at 110 µM and the kcat amounted to 157 ×10⁻³ /hr. In addition, the Activity in the assay with Escherichia coli [4] was 10%.
Consider `NOCc1ccccc1`, for which the Michaelis constant (Km) in the assay on Escherichia coli [5] was 70 µM. Further, in the assay with Escherichia coli [5], the kcat was 424 ×10⁻³ /hr. In addition, the Activity came to 71% in the assay with Escherichia coli [6], 73% in the assay on Escherichia coli [2] and 61% in the assay on Escherichia coli [4]. The kcat/Km in the assay on Escherichia coli [7] worked out at 1.68 M⁻¹ s⁻¹.
With `CN(C)c1ccc(/C=N/O)cc1`, the kcat/Km with Escherichia coli [8] is 0.28 M⁻¹ s⁻¹. The Activity amounted to 8% in the assay with Escherichia coli [2] and 2% with Escherichia coli [4]. For the same compound, in the assay with Escherichia coli [9], the Km was determined as 140 µM. The kcat in the assay on Escherichia coli [9] stood at 141 ×10⁻³ /hr.
With `CN(C)c1ccc(CNO)cc1`, the kcat/Km with Escherichia coli [1] is 0.158 M⁻¹ s⁻¹. The Activity in the assay with Escherichia coli [2] was determined as 12%; with Escherichia coli [4], 14%. The Km with Escherichia coli [3] came to 140 µM. Besides, the kcat in the assay on Escherichia coli [3] was determined as 79 ×10⁻³ /hr.
For `ONCc1ccc2c(c1)OCO2` the same measures were 0.869 M⁻¹ s⁻¹, 16%, 20%, 60 µM and 187 ×10⁻³ /hr.
